Measured values reported in patent publication US8138196B2, “Antifungal wallboards and building materials and methods for the production thereof” (Syngenta Crop Protection, Inc., priority 2005, dated 2012).

Assays:
Assay type in all cases: cell-based
[1] = system: Aureobasidium pullulans (ATCC 15233); test: Example 3 liquid culture assay on 24 well plates, solo and 2-way mixtures; settings: test 006-2005; rate (DFZ) 3.12 mg ai/l
Description: (§1) Alternaria tenuissima (DSM 63360), Penicillium chrysogenum (DSM 895), Stachybotrys chartarum (DSM2144), Aspergillus niger (DSM 63263), Aspergillus versicolor (DSM 1943) and Aureobasidium pullulans (ATCC 15233) were separately cultivated on PDA media to […] sporulation. Spore suspensions were produced for each fungi. Spore concentrations of approx. 100.000 spores/ml were used.
(§2) Test method used: liquid culture assay on 24 well plates.
(§3) For solo (i.e. single) ai testing the formulated fungicide (100 ul) was filled into the 24 well plates and 100 ul distilled water was added. Afterwards 800 ul of 0.3% AE media was added to the plate. The spore suspension of the specific fungi was added to this media in advance containing approx. 100,000 spores/ml. The 24 well plates were sealed and incubated at 24° C.
(§4) Dependent on the growth properties of each organisms, the evaluation was done after 3 to 6 days, when the surface of the check well was covered with mycelium. The evaluation was performed by assessing the growth of the fungi related to the check growth. The results are expressed as % activity relative to the check (values of 0-100% growth). Afterwards the results were converted in % O growth inhibition.
(§5) For synergism testing of the 2-way mixtures 100 ul of each fungicide were filled into 24 well plates and 800 ul of 0.3% AE media containing the spore suspension was added. Different ratios of the 2 fungicide rates were tested at the same time.
(§6) For the mixtures of different fungicides the synergism was calculated based on the Colby equation, which is described below: […]
(§7) The fungicidal action to be expected, We, for a given combination of two fungicides can be calculated as follows (see COLBY, S. R. “Calculating synergistic and antagonistic response of herbicide combinations”. Weeds 15, pages 20-22; 1967): We=X+[Y×(100−X)/100] wherein: • X=% activity in the case of treatment with the compound of formula I at rate x, in comparison with untreated control (=0%). • Y=% activity in the case of treatment with a compound of formula II at rate y, in comparison with untreated control. • We=expected activity (% activity in comparison with untreated control) after treatment with the compound of formula I and a compound of formula II at a rate of x+y kg of active ingredient.
(§8) If the activity actually observed is greater than the expected value We (factor observed activity/expected activity >1.2), there is a synergistic effect.

[2] = system: Alternaria tenuissima (DSM 63360); test: as above
Description: as §1, §2, §3, §4, §5, §6, §7, §8

[3] = system: Aspergillus niger (DSM 63263); test: as above; settings: test 006-2005
Description: as §1, §2, §3, §4, §5, §6, §7, §8

[4] = system: Aspergillus versicolor (DSM 1943); test: as above; settings: test 006-2005; rate (FDL) 0.05 mg ai/l
Description: as §1, §2, §3, §4, §5, §6, §7, §8

[5] = system: Penicillium chrysogenum (DSM 895); test: as above; settings: test 006-2005
Description: as §1, §2, §3, §4, §5, §6, §7, §8

[6] = system: Alternaria tenuissima (DSM 63360); test: Example 4 liquid culture assay on 24 and 48 well plates, 3 way mixtures; settings: A. tenuissima
Description: as §1, with “For test 006-2005: Alternaria” for “Alternaria”, “Cladosporium cladosporoides (DSM62121),” for “Stachybotrys chartarum (DSM2144),”, “fungus.” for “fungi.”, “100,000” for “100.000”
(§9) […] Spore suspensions were produced for each fungus. Spore concentrations of approx. 100,000 spores/ml were used.
(§10) Test method used: liquid culture assay on 24 and 48 well plates respectively.
(§11) For testing of the 3 way mixtures each of the formulated fungicide (100 ul) was filled into the 24 and 48 well plates respectively. Afterwards 700 ul of 0.3% AE media was added to the plate. The spore suspension of the specific fungi was added to this media in advance containing approx. 100,000 spores/ml. For testing the solo compounds the equivalent of distilled water was added instead of the formulated fungicide volume of the mixing partners. The plates were then sealed and incubated at 24° C.
as §4, with “%” for “% O”
(§12) For the mixtures of different fungicides the synergism was calculated based on the Colby equation, which is described above.

[7] = system: Aspergillus niger (DSM 63263); test: as above; settings: A. niger
Description: as §1, with “For test 006-2005: Alternaria” for “Alternaria”, “Cladosporium cladosporoides (DSM62121),” for “Stachybotrys chartarum (DSM2144),”, “fungus.” for “fungi.”, “100,000” for “100.000”
For test 015-2006: Alternaria tenuissima (DSM 63360), Penicillium pinophilum (CBS342.61), Gliocladium virens (DSM1963), Aspergillus niger (DSM 63263), Stachybotrys chartarum (DSM 2144) and Aureobasidium pullulans (ATCC 15233) were separately cultivated on PDA media to […] sporulation. Spore suspensions were produced for each fungus. Spore concentrations of approx. 100,000 spores/ml were used.
as §10, §11
as §4, with “%” for “% O”
as §12

[8] = system: Aspergillus versicolor (DSM 1943); test: as above; settings: test 006-2005, A. versicolor
Description: as §1, with “For test 006-2005: Alternaria” for “Alternaria”, “Cladosporium cladosporoides (DSM62121),” for “Stachybotrys chartarum (DSM2144),”, “fungus.” for “fungi.”, “100,000” for “100.000”
as §10, §11
as §4, with “%” for “% O”
as §12

[9] = system: Stachybotrys chartarum (DSM 2144); test: as above; settings: test 015-2005, S. chartarum
Experimental: as §9, §10, §11
as §4, with “%” for “% O”
as §12

## CC1COC(Cn2cncn2)(c2ccc(Oc3ccc(Cl)cc3)cc2Cl)O1 (centres unmarked) [Difenoconazole]
[1]
  inh % (DFZ alone): 70%

## N#Cc1c[nH]cc1-c1cccc2c1OC(F)(F)O2 [Fludioxonil]
[2]; test 006-2005, rate (FDL) 0.2 mg ai/l
  inh % (FDL alone): 70%
[2]; test 015-2005, rate (FDL) 0.2 mg ai/l
  inh % (FDL alone): 30%
[2]; test 015-2005, rate (FDL) 0.4 mg ai/l
  inh % (FDL alone): 30%
[2]; test 015-2005, rate (FDL) 0.8 mg ai/l
  inh % (FDL alone): 30%
[2]; test 015-2005, rate (FDL) 1.6 mg ai/l
  inh % (FDL alone): 50%
[2]; test 015-2005, rate (FDL) 3.1 mg ai/l
  inh % (FDL alone): 50%
[2]; test 015-2005, rate (FDL) 6.25 mg ai/l
  inh % (FDL alone): 50%
[2]; test 015-2005, rate (FDL) 12.5 mg ai/l
  inh % (FDL alone): 70%
[2]; test 015-2005, rate (FDL) 25 mg ai/l
  inh % (FDL alone): 70%
[2]; test 015-2005, rate (FDL) 50 mg ai/l
  inh % (FDL alone): 70%
[2]; test 015-2005, rate (FDL) 100 mg ai/l
  inh % (FDL alone): 70%
[2]; test 015-2005, rate (FDL) 200 mg ai/l
  inh % (FDL alone): 50%
[3]; rate (FDL) 0.2 mg ai/l
  inh % (FDL alone): 50%
[3]; rate (FDL) 0.8 mg ai/l
  inh % (FDL alone): 70%
[3]; rate (FDL) 1.6 mg ai/l
  inh % (FDL alone): 70%
[3]; rate (FDL) 3.12 mg ai/l
  inh % (FDL alone): 70%
[3]; rate (FDL) 12.5 mg ai/l
  inh % (FDL alone): 70%
[4]
  inh % (FDL alone): 10%
[5]; rate (FDL) 0.05 mg ai/l
  inh % (FDL alone): 0%
[5]; rate (FDL) 0.2 mg ai/l
  inh % (FDL alone): 50%
[6]; test 006-2005, FDL 0.2 mg ai/l
  inh % (FDL alone): 50%
[6]; test 006-2005, FDL 0.8 mg ai/l
  inh % (FDL alone): 70%
[6]; test 006-2005, FDL 1.6 mg ai/l
  inh % (FDL alone): 70%
[6]; test 015-2005, FDL 0.8 mg ai/l
  inh % (FDL alone): 50%
[6]; test 015-2005, FDL 1.6 mg ai/l
  inh % (FDL alone): 50%
[7]; test 006-2005, FDL 0.8 mg ai/l
  inh % (FDL alone): 50%
[7]; test 015-2005, FDL 0.8 mg ai/l
  inh % (FDL alone): 50%
[7]; test 015-2005, FDL 1.6 mg ai/l
  inh % (FDL alone): 50%
[7]; test 015-2005, FDL 3.1 mg ai/l
  inh % (FDL alone): 50%
[8]; FDL 0.2 mg ai/l
  inh % (FDL alone): 0%
[8]; FDL 0.8 mg ai/l
  inh % (FDL alone): 0%
[8]; FDL 1.6 mg ai/l
  inh % (FDL alone): 0%
[9]; FDL 0.05 mg ai/l
  inh % (FDL alone): 10%
[9]; FDL 0.2 mg ai/l
  inh % (FDL alone): 50%
